Measurements published in US6544561B2 (The Lachlan Family Pty Ltd., priority 1997, dated 2003).

Assays:
[1] = tested on: outbred (Swiss) female mice; details: drinking water with Mg2+ 120 mg per liter from weaning, fed on alternate days
Description: A short-lived mammalian species was chosen. […] Two hundred outbred (Swiss) female mice were divided randomly at weaning into two groups of 100 mice and were maintained under identical management and environmental conditions.
The second group of mice was supplied with drinking water that contained magnesium sulphate (Epsom salts) 1 gram per liter with a pH value between pH 6.5 and pH 7.0. This drinking water contained approximately Mg^2+ 120mg per liter. Bicarbonate anions were absent.
Both groups of mice were fed commercial laboratory food that contained 1 gram of magnesium per kilogram of food. Both groups of mice were fed on alternate days with no food available on the other days. Group-specific drinking water (as described above) was available at all times.

[2] = tested on: post menopausal women with osteoarthritis in the joints of their hands; details: in vivo
Description: For an experimental trial, a group of post menopausal women were chosen who had clinical signs of osteoarthritis in the joints of their hands. The osteoarthritic joints included the distal and proximal interphalangeal joints of the fingers and the carpometacarpal joint of the thumbs. In all cases, loss of joint function was moderate to severe.
In all cases, the women suffered pain, swelling of the fingers and loss of joint movement. […] Women with affected thumbs had considerable loss of function and considerable pain. […] The women consumed between 2 to 3 liters of bicarbonate solution per day. […] Consumption was commenced at half a liter per day and increased by increments over a period of one month to 2 to 3 liters per day. Consumption occurred on an empty stomach to avoid the loss of bicarbonate by stomach acid. Consumption occurred in small amounts (300 mL) at set times each day to avoid rapid increases in bicarbonate concentrations of body fluids.

[3] = with lowered body weight; text refers to the trial of Example 5
Description: A trial involving people consuming bicarbonate anions in water was conducted. These people were middle aged and overweight and complained of tiredness and lethargy. No control group was maintained for the duration of the trial (people in an initial control group were unable to consume the volumes of soft water required). […] They were requested to decrease their food (calorie) intake considerably and to avoid dietary fats.
Bicarbonate concentration was established at a maximum of one gram per liter.
Each participant in the trial was advised to consume the bicarbonate solution ‘on an empty stomach’. […] Advice was given also to consume the solution in small amounts at set times each day. Consumption in this manner avoided a rapid increase in the bicarbonate concentrations of body fluids.

Compound: O=S(=O)([O-])[O-].[Mg+2] [magnesium sulphate, reference compound]
- Fifty Percent Survival [1]: 736 days
- Maximum Life Span [1]: 1040 days

Compound: magnesium bicarbonate
- Fifty Percent Survival [1]: 790 days
- Maximum Life Span [1]: 1152 days
- Pain and swelling associated with osteoarthritis [2]: alleviated the pain and swelling associated with osteoarthritis
- Blood pressure [3]: reduction in high blood pressure to a normal value
